Patent US20090227575A1, “7H-PYRROLO[2,3-H]QUINAZOLINE COMPOUNDS, THEIR USE AS mTOR KINASE AND PI3 KINASE INHIBITORS, AND THEIR [sequence]” (Wyeth, priority 2008, published 2009)

Key:
Type in all cases: biochemical
PI3K-alpha = PI3K-alpha (Homo sapiens, UniProt P42336); assay: PI3K-alpha fluorescence polarization assay; conditions: read-out: PI3 Kinase α IC50
Method: (§1) The reaction buffer was 20 mM HEPES, pH 7.5, 2 mM MgCl2, 0.05% CHAPS; and 0.01% βME (added fresh). The Stop/Detection Buffer was 100 mM HEPES, pH 7.5, 4 mM EDTA, 0.05% CHAPS; ATP 20 mM in water; PIP2 (diC8, Echelon, Salt Lake City Utah cat #P-4508) 1 mM in water (MW=856.5). The GST-GRP was 1.75 mg/mL or 1.4 mg/mL in 10% glycerol. The Red detector (TAMRA) was 2.5 μM. Nunc 384-well black polypropylene fluorescent plates were used for PI3K assays.
(§2) The assay is run by placing 5 μL of diluted enzyme per well, then 5 μL of diluted compound (or 9.5 μL enzyme then 0.5 μL compound in DMSO) is added and mixed. Then, 10 μL substrate is added to start the reaction. The samples are incubated 30-60 minutes, then the reaction is stopped by adding 20 μL stop/detector mix. PI3K is diluted with reaction buffer (e.g., 5 μL or 7.5 μL PI3K into 620 μL reaction buffer), and 5 μL of diluted enzyme is used per well. A 5 μL portion of reaction buffer or of drug diluted in buffer (e.g., 4 μL/100 so final DMSO is 1% in reaction) is added to each. Pipetting up and down mixes the samples. Alternatively, the enzyme can be diluted to 1215 μL. In this case 9.8 μL is added per well and 0.2 μL compound is added in DMSO.
(§3) To prepare 1 mL of substrate solution, 955 μL reaction buffer, 40 μL PIP2, and 2.5 μL ATP are mixed. 10 μL of substrate is added to each well to start the reaction. […] The stop/detector mix is prepared by mixing 4 μL Red detector and 1.6 μL or 2.0 μL GST-GRP with 1 mL stop buffer, which results in 10 nM probe and 70 nM GST-GRP. 20 μL of the stop/detector mix is added to each well to stop the reaction. The plates are read after 30-90 minutes keeping the red probe solutions dark. For the zero time point, stop/detector mix is added to the enzyme just before adding substrate. For an extra control, stop/detector mix is added to buffer (no enzyme) and substrate or to just buffer (no substrate). […] The recommended reaction has 0.06 μL per 20 μL (0.015 μg/20 μL) or 0.01125 μg/15 μL or 0.75 μg/mL.
(§4) Plates are read on machines with filters for TAMRA. The units are mP with no enzyme controls reading app 190-220 mP units. Fully active enzyme reduces fluorescence polarization down to 70-100 mP after 30 minutes. An active compound raises the mP values halfway to control or to 120-150 mP units.

PI3K-gamma = PI3K-gamma (Homo sapiens, UniProt P48736); assay: PI3K-gamma fluorescence polarization assay; conditions: read-out: PI3 Kinase γ IC50
Method: as §1, §2, §3, §4

Human mTOR = Human mTOR (Homo sapiens, UniProt P42345); assay: mTOR kinase assay (DELFIA format, purified enzyme); set-up: FLAG; conditions: read-out: TOR Kinase IC50

Sequence of PI3K-gamma (P48736 whole entry, species assumed): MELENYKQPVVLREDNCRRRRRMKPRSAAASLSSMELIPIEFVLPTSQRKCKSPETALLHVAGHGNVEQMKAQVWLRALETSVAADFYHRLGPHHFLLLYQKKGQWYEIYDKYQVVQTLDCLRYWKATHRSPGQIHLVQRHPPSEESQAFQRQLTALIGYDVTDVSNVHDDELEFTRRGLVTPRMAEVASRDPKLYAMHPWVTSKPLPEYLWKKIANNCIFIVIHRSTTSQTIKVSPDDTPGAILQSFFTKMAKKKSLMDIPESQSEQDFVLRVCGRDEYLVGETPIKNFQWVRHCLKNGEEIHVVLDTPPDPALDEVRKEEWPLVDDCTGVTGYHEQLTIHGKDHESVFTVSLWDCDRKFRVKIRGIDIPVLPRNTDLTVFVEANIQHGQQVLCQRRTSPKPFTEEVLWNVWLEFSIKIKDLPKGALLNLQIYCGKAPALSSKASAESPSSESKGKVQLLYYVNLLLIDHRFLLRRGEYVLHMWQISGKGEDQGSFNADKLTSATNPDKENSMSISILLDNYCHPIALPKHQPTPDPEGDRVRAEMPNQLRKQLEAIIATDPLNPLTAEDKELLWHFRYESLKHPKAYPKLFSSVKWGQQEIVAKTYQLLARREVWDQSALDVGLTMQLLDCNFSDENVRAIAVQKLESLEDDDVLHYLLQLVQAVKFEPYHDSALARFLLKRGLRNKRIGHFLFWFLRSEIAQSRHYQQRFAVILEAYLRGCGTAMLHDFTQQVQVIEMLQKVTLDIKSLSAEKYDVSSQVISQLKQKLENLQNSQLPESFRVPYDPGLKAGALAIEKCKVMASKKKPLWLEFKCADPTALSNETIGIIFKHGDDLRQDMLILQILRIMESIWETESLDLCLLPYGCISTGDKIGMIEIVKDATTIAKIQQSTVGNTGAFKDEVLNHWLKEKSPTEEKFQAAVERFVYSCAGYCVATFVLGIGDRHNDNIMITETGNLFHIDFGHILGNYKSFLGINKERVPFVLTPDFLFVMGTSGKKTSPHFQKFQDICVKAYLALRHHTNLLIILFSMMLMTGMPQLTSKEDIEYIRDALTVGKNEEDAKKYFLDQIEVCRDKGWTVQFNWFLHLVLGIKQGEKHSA
Sequence of PI3K-alpha (P42336 whole entry, species assumed): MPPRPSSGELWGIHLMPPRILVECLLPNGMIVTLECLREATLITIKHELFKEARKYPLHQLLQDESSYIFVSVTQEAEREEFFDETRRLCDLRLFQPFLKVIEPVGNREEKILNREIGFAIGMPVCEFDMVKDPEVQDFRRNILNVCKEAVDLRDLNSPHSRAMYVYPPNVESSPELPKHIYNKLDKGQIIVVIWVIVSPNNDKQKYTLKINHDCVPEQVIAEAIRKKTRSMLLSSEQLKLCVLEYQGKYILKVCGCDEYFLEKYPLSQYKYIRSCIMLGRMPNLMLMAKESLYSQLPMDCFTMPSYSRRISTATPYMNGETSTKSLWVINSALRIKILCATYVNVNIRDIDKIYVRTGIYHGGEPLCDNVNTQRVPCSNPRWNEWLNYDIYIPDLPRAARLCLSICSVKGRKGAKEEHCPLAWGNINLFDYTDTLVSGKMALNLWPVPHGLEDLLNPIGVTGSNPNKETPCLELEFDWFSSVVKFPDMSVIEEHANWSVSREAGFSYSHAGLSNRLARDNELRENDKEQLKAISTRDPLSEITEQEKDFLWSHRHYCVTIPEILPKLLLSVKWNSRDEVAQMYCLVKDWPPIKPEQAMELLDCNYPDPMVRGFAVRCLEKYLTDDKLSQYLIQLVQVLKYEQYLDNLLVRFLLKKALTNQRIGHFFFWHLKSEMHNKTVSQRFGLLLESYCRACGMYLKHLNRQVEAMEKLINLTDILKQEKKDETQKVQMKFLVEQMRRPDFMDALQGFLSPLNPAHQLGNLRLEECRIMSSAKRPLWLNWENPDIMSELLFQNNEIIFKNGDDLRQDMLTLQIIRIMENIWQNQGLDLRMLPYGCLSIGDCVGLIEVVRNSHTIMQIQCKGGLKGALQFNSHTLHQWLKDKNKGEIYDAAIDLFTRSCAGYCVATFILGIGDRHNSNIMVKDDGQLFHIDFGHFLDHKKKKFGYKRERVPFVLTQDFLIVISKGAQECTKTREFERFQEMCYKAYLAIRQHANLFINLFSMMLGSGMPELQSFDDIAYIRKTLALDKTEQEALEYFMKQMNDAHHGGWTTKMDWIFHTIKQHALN
Sequence of PI3K-alpha (P27986 whole entry partner, species assumed): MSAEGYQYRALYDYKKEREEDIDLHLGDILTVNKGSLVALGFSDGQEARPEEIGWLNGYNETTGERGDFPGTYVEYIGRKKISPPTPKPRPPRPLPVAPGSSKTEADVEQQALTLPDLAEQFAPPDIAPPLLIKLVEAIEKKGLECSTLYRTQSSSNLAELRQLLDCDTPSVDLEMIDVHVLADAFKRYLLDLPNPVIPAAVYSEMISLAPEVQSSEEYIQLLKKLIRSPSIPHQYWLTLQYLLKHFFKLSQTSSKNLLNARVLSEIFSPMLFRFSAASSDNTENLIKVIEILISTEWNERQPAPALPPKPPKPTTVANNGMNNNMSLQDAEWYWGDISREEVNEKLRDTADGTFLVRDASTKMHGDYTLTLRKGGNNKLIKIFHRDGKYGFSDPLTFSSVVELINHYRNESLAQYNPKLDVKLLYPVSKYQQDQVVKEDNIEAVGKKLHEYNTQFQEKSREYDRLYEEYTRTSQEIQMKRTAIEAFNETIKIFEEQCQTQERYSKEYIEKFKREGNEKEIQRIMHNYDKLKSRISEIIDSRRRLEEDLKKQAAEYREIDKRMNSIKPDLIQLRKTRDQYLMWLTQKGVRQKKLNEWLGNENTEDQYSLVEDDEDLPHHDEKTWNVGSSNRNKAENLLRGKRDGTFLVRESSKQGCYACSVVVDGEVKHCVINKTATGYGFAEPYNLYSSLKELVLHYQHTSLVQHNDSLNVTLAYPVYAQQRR

SMILES	IC50 (PI3K-alpha)	IC50 (PI3K-gamma)	IC50 (Human mTOR)
Cn1ccc2c3nc(-c4cccc(C=O)c4)nc(N4CCOCC4)c3ccc21 [Example 23, 3-(7-methyl-4-morpholin-4-yl-7H-pyrrolo[2,3-h]quinazolin-2-yl)benzaldehyde]	5330 nM	9500 nM	320 nM
Cn1ccc2c3nc(-c4ccc(NC(=O)Nc5cccc(Cl)c5)cc4)nc(N4CCOCC4)c3ccc21 [Example 13, 1-(3-chlorophenyl)-3-[4-(7-methyl-4-morpholin-4-yl-7H-pyrrolo[2,3-h]quinazolin-2-yl)phenyl]urea]	62 nM	234 nM	260 nM
CCNC(=O)Nc1ccc(-c2nc(N3CCOCC3)c3ccc4c(ccn4C)c3n2)cc1 [Example 3, 1-ethyl-3-[4-(7-methyl-4-morpholin-4-yl-7H-pyrrolo[2,3-h]quinazolin-2-yl)phenyl]urea]	2110 nM	4040 nM	35 nM
CN(C)S(=O)(=O)Nc1cccc(-c2nc(N3CCOCC3)c3ccc4c(ccn4C)c3n2)c1 [Example 55, N,N-dimethyl-N′-[3-(7-methyl-4-morpholin-4-yl-7H-pyrrolo[2,3-h]quinazolin-2-yl)phenyl]sulfamide]	4340 nM	6160 nM	525 nM
O=S(=O)(C1CCNCC1)n1ccc2c3nc(-c4cccc(O)c4)nc(N4CCOCC4)c3ccc21 [Example 67, 3-[4-morpholin-4-yl-7-(piperidin-4-ylsulfonyl)-7H-pyrrolo[2,3-h]quinazolin-2-yl]phenol]	231 nM	1580 nM	670 nM
COCOc1cncc(-c2nc(N3CCOCC3)c3ccc4c(ccn4C)c3n2)c1 [Example 77, 2-[5-(methoxymethoxy)pyridin-3-yl]-7-methyl-4-morpholin-4-yl-7H-pyrrolo[2,3-h]quinazoline]	451 nM	933 nM	525 nM
CC(C)CC(O)c1cccc(-c2nc(N3CCOCC3)c3ccc4c(ccn4C)c3n2)c1 (stereo not drawn) [Example 28, 3-methyl-1-[3-(7-methyl-4-morpholin-4-yl-7H-pyrrolo[2,3-h]quinazolin-2-yl)phenyl]butan-1-ol]	2510 nM	4520 nM	2700 nM
Nc1ncc(-c2nc(N3CCOCC3)c3ccc4c(ccn4S(=O)(=O)c4ccccc4)c3n2)cn1 [Example 71, 5-[4-morpholin-4-yl-7-(phenylsulfonyl)-7H-pyrrolo[2,3-h]quinazolin-2-yl]pyrimidin-2-amine]	52 nM	114 nM	545 nM
CC(=O)NCc1cccc(-c2nc(N3CCOCC3)c3ccc4c(ccn4C)c3n2)c1 [Example 44, N-[3-(7-methyl-4-morpholin-4-yl-7H-pyrrolo[2,3-h]quinazolin-2-yl)benzyl]acetamide]	9360 nM	9500 nM	4000 nM
C=CC(O)c1cccc(-c2nc(N3CCOCC3)c3ccc4c(ccn4C)c3n2)c1 (stereo not drawn) [Example 26, 1-[3-(7-methyl-4-morpholin-4-yl-7H-pyrrolo[2,3-h]quinazolin-2-yl)phenyl]prop-2-en-1-ol]	5420 nM	> 10000 nM	2100 nM
O=S(=O)(c1ccccc1)n1ccc2c3nc(-c4cccc(O)c4)nc(N4CCOCC4)c3ccc21 [Example 69, 3-[4-morpholin-4-yl-7-(phenylsulfonyl)-7H-pyrrolo[2,3-h]quinazolin-2-yl]phenol]	274 nM	1130 nM	1110 nM
CN(C)CCNC(=O)Nc1ccc(-c2nc(N3CCOCC3)c3ccc4c(ccn4C)c3n2)cc1 [Example 4, 1-[2-(dimethylamino)ethyl]-3-[4-(7-methyl-4-morpholin-4-yl-7H-pyrrolo[2,3-h]quinazolin-2-yl)phenyl]urea]	728 nM	2840 nM	2050 nM
Cn1ccc2c3nc(-c4cccc5[nH]ncc45)nc(N4CCOCC4)c3ccc21 [Example 79, 2-(1H-indazol-4-yl)-7-methyl-4-morpholin-4-yl-7H-pyrrolo[2,3-h]quinazoline]	1080 nM	6090 nM	435 nM

Continued, values first:

IC50 (PI3K-alpha)	IC50 (PI3K-gamma)	IC50 (Human mTOR)	SMILES
119 nM	491 nM	67 nM	CN1CCC(S(=O)(=O)n2ccc3c4nc(-c5ccc(NC(=O)Nc6ccncc6)cc5)nc(N5CCOCC5)c4ccc32)CC1 [Example 63, 1-(4-{7-[(1-methylpiperidin-4-yl)sulfonyl]-4-morpholin-4-yl-7H-pyrrolo[2,3-h]quinazolin-2-yl}phenyl)-3-pyridin-4-ylurea]
214 nM	1010 nM	910 nM	Cn1ccc2c3nc(-c4cc(O)ccc4Cl)nc(N4CCOCC4)c3ccc21 [Example 53, 4-chloro-3-(7-methyl-4-morpholin-4-yl-7H-pyrrolo[2,3-h]quinazolin-2-yl)phenol]
> 10000 nM	> 10000 nM	7550 nM	Cn1ccc2c3nc(-c4ccc(O)nc4)nc(N4CCOCC4)c3ccc21 [Example 48, 5-(7-methyl-4-morpholin-4-yl-7H-pyrrolo[2,3-h]quinazolin-2-yl)pyridin-2-ol]
48 nM	426 nM	247 nM	Cn1ccc2c3nc(-c4cnc(N)nc4)nc(N4CCOCC4)c3ccc21 [Example 43, 5-(7-methyl-4-morpholin-4-yl-7H-pyrrolo[2,3-h]quinazolin-2-yl)pyrimidin-2-amine]
431 nM	3040 nM	190 nM	Cn1ccc2c3nc(-c4ccc(NC(=O)NCCCn5ccnc5)cc4)nc(N4CCOCC4)c3ccc21 [Example 8, 1-[3-(1H-imidazol-1-yl)propyl]-3-[4-(7-methyl-4-morpholin-4-yl-7H-pyrrolo[2,3-h]quinazolin-2-yl)phenyl]urea]
222 nM	862 nM	15 nM	CN(C)CCn1ccc2c3nc(-c4ccc(NC(=O)Nc5ccncc5)cc4)nc(N4CCOCC4)c3ccc21 [Example 33, 1-(4-{7-[2-(dimethylamino)ethyl]-4-morpholin-4-yl-7H-pyrrolo[2,3-h]quinazolin-2-yl}phenyl)-3-pyridin-4-ylurea]
> 10000 nM	> 10000 nM	2050 nM	COc1ccc(-c2nc(N3CCOCC3)c3ccc4c(ccn4C)c3n2)cn1 [Example 47, 2-(6-methoxypyridin-3-yl)-7-methyl-4-morpholin-4-yl-7H-pyrrolo[2,3-h]quinazoline]
114 nM	519 nM	28 nM	O=C(Nc1ccncc1)Nc1ccc(-c2nc(N3CCOCC3)c3ccc4c(ccn4S(=O)(=O)C4CCNCC4)c3n2)cc1 [Example 62, 1-{4-[4-morpholin-4-yl-7-(piperidin-4-ylsulfonyl)-7H-pyrrolo[2,3-h]quinazolin-2-yl]phenyl}-3-pyridin-4-ylurea]
174 nM	2230 nM	410 nM	Cn1ccc2c3nc(-c4cccc(O)c4)nc(N4CCOCC4)c3ccc21 [Example 35, 3-(7-methyl-4-morpholin-4-yl-7H-pyrrolo[2,3-h]quinazolin-2-yl)phenol]
63 nM	560 nM	2600 nM	CS(=O)(=O)n1ccc2c3nc(-c4cccc(O)c4)nc(N4CCOCC4)c3ccc21 [Example 59, 3-[7-(methylsulfonyl)-4-morpholin-4-yl-7H-pyrrolo[2,3-h]quinazolin-2-yl]phenol]
